{
  "source": "ChEMBL document CHEMBL1146628",
  "about": "“Identification of TNF-alpha inhibitors from a split-pool library based on a tyrosine-proline peptidomimetic scaffold” (Bioorg Med Chem Lett, 2003)",
  "settings_in_all_cases": "Homo sapiens",
  "key": {"[1]": {"test_system": "A549", "test": "Inhibitory concentration (resynthesized pure material) against TNF-alpha induced apoptosis of A549 cells", "assay_type": "functional, cell-based"}, "[2]": {"test_system": "A549", "test": "Inhibitory concentration (solid phase) against TNF-alpha induced apoptosis of A549 cells", "assay_type": "functional, cell-based"}, "[3]": {"test_system": "A549", "test": "Inhibitory concentration (resynthesized pure material) against TNF-alpha induced apoptosis of A549 cells at 20 uM", "assay_type": "functional"}},
  "data": [
    {"smiles": "CCCCCN(CCCCC)C(=O)[C@@H]1C[C@H](Oc2ccc(C[C@H](NC(=O)c3cnc4ccccc4c3)C(N)=O)cc2)CN1C(=O)c1cnc2ccccc2c1", "values": [
      {"measurement": "IC50", "setting": "[1]", "value": 12.9, "unit": "µM"},
      {"measurement": "IC50", "setting": "[2]", "value": 15.4, "unit": "µM"}
    ]},
    {"smiles": "CCCCCN(CCCCC)C(=O)[C@@H]1C[C@H](Oc2ccc(C[C@H](NC(=O)CC)C(N)=O)cc2)CN1C(=O)c1cnc2ccccc2c1", "values": [
      {"measurement": "inhibition at 20 µM", "setting": "[3]", "value": 35, "unit": "%"}
    ]},
    {"smiles": "CCCCCN(CCCCC)C(=O)[C@@H]1C[C@H](Oc2ccc(C[C@H](NC(=O)Cc3ccccc3)C(N)=O)cc2)CN1C(=O)c1cnc2ccccc2c1", "values": [
      {"measurement": "IC50", "setting": "[1]", "value": 8.1, "unit": "µM"},
      {"measurement": "IC50", "setting": "[2]", "value": 11.1, "unit": "µM"}
    ]},
    {"smiles": "CCCCCN(CCCCC)C(=O)[C@@H]1C[C@H](Oc2ccc(C[C@H](NC(=O)C(CC)CC)C(N)=O)cc2)CN1C(=O)c1cnc2ccccc2c1", "values": [
      {"measurement": "IC50", "setting": "[1]", "value": 10.1, "unit": "µM"}
    ]}
  ]
}
